According to patent US20180221487A1, “NOVEL PROTEIN TRANSFECTION COMPOSITIONS AND USES THEREOF” (Chang Gung Memorial Hospital, Linkou, priority 2017, published 2018):
“Also recorded” adds a separate entry of the source.

How the values were obtained:
[1] = test system: human ovarian cancer cells; experiment: HEPES-mediated protein transfection pathway with endocytic inhibitors; format: cell-based; settings: pretreatment 30 min: 0.2-0.4 M sucrose, 5 μg/ml filipin or 0.0125-0.25 mM amiloride; 20 mM HEPES; after 4 hours and 24 hours
Experimental: Immunofluorescent staining procedure: After protein transfection is completed, the cells in the culture dish were washed three times with phosphate buffered saline (PBS) and fixed with 4% paraformaldehyde for 20 min. The cells were washed again with PBS, perforated with 0.1% Triton X-100 for 5 min, and blocked with 10% BSA for 30 min. For Alexa Fluor 488 anti-mouse IgGs, cells were stained with DAPI for 10 min. For B23, histone 1 or GAPDH antibody transfection, cells were stained with Alexa Fluor 488 or 546 anti-mouse IgG antibodies for 30 min and then stained with DAPI. For […]1 proteins or Flag-Rev peptides transfection, cells were stained with anti-v5 or anti-flag antibodies, respectively, and then stained with Alexa Fluor 488 anti-mouse IgG and DAPI. All images were detected by confocal microscopes (Leica, Wetzlar, Germany). The fluorescent signals were analyzed and quantified by Q-Win software (Leica, Wetzlar, Germany). An in vitro evaluation of HEPES-mediated protein transfection pathway was performed using the following endocytic inhibitors: sucrose (a clathrin-mediated endocytic inhibitor), filipin (a caveolae-mediated endocytic inhibitor) and amiloride (a macropinocytic inhibitor). Human ovarian cancer cells were pretreated with Opti-MEM (the control group), 0.2-0.4 M sucrose, 5 μg/ml filipin or 0.0125-0.25 mM amiloride for 30 min, followed by the transfection of Alexa Fluor 488 anti-mouse IgG antibodies using 20 mM HEPES buffer according to the steps in Example 1. The IgG antibody transfection efficiency was assessed by confocal fluorescent microscopy. […] The fluorescent signals of IgG were quantified by Q-Win software, expressed as a relative ratio in FIGS. 12C and 12D (error bars indicate s.e.m. (n=3) and asterisk denotes significant difference, P<0.001). […] The HEPES mediated protein transfection is induced by at least one of the following pathways: clathrin-mediated or caveolae-mediated endocytosis, or macropinocytosis.

[2] = test system: human ovarian cancer cells; experiment: Cytotoxicity of HEPES buffer concentrations (MTT and LDH assay); format: cell-based; settings: Opti-MEM and HEPES buffer 0-200 mM, 24 h
Experimental: (§1) MTT and LDH assay: In MTT assay, the cells were incubated for 24 h and then centrifuged at 1500 rpm for 5 min. The supernatants were discarded and attached cells were analyzed by MTT reagent (Promega Corporation, Wisconsin, US). In LDH assay, the cells were incubated for […] and then centrifuged at 1500 rpm for 5 min. The supernatants were collected and analyzed by LDH reagent (Sigma, St. Louis, Mo., USA). The cell viability (MTT assay) and cytotoxicity (LDH assay) were assayed following the manufacturer's protocol. The MTT and LDH signals were detected by ELISA Reader (Tecan Systems, Inc., San Jose, Calif., USA).
(§2) The cytotoxicity of various HEPES buffer concentrations was evaluated. Human ovarian cancer cells and endometrial cancer cells were incubated in Opti-MEM and HEPES buffer (0-200 mM) for 24 h. Cell viability and cytotoxicity were analyzed by MTT and LDH assay, respectively.

endometrial cancer cells = experiment: as above; format: cell-based, human; settings: Opti-MEM and HEPES buffer 0-200 mM, 24 h
Experimental: as §1, §2

[3] = test system: human ovarian cancer cells (MDAH2774); experiment: Protein transfection, immunofluorescent staining / confocal microscopy; format: cell-based
Experimental: Immunofluorescent staining procedure: After protein transfection is completed, the cells in the culture dish were washed three times with phosphate buffered saline (PBS) and fixed with 4% paraformaldehyde for 20 min. The cells were washed again with PBS, perforated with 0.1% Triton X-100 for 5 min, and blocked with 10% BSA for 30 min. For Alexa Fluor 488 anti-mouse IgGs, cells were stained with DAPI for 10 min. For B23, histone 1 or GAPDH antibody transfection, cells were stained with Alexa Fluor 488 or 546 anti-mouse IgG antibodies for 30 min and then stained with DAPI. For rhSTIP1 proteins or Flag-Rev peptides transfection, cells were stained with anti-v5 or anti-flag antibodies, respectively, and then stained with Alexa Fluor 488 anti-mouse IgG and DAPI. All images were detected by confocal microscopes (Leica, Wetzlar, Germany). The fluorescent signals were analyzed and quantified by Q-Win software (Leica, Wetzlar, Germany).
FIG. 1 schematically illustrates the protein transfection procedure. Briefly, the protein of interest and a protein transfection composition, such as HEPES buffer, were mixed and incubated for about 15 min to about 30 min to form a mixture (Panel A). Cells to be transfected were replaced in a minimal essential medium (Panel B). The mixture in Panel A was added to the cells in Panel B and incubated at 37° C. for about 4 to about 24 hours (Panel C). The protein transfection efficiency can be analyzed using immunofluorescent staining or flow cytometry (Panel D).
An in vitro evaluation of the optimal protein transfection condition was performed. According to the steps in FIG. 1. rhSTIP1 was incubated with HEPES buffers of different concentrations (5 or 20 mM) or Opti-MEM (control) at room temperature for about 15 minutes to form the protein mixtures to transfect human ovarian cancer cells. The mixtures were added to the cell culture dish comprising Opti-MEM and incubated at 37° C. for about 4 to about 24 hours.
Different amounts of Alexa Fluor® 488 anti-mouse IgG (0, 2, 4, 8, or 16 μg) were incubated with 20 mM HEPES buffer and mixed with ovarian (MDAH2774) cancer cells in Opti-MEM.
Alexa Fluor 488 anti-mouse IgG antibodies were mixed with 20 mM HEPES to form a mixture. […] Protein transfection efficiency was assessed using confocal fluorescent microscope.
The following proteins were incubated with Opti-MEM (control group) or 20-30 mM HEPES buffer to transfect ovarian cancer cells (MDAH2774 or MOSEC) or endometrial cancer cells: Alexa Fluor 488-conjugated, anti-mouse IgG antibody (about 150 kDa), anti-B23 antibody, anti-histone 1 antibody, anti-STIP1 antibody, rhSTIP1 protein (62.6 kDa), Flag-Rev peptide (<5 kDa) and FITC-Rev peptide (<5 kDa). […] Protein transfection efficiency was assessed by staining the transfected cancer cells with Alexa Fluor 488 or 594 anti-mouse IgG antibodies (for Alexa Fluor 488-conjugated anti-mouse IgG antibody, anti-B23 antibody, anti-histone 1 antibody, anti-STIP1 antibody), v5 antibody (for rhSTIP1), or anti-Flag antibody (for Flag-Rev peptide), and fluorescent signals were analyzed with confocal microscopy.
The protein transfection efficiency of HEPES was compared to other commercial reagents, such as PULsin™, ProteoJuice™, Pro-Ject™, Xfect™, and BioPORTER®. […] The transfected ovarian cancer cells were stained with Alexa Fluor 488 anti-mouse IgG antibodies and protein transfection efficiency was assessed by confocal fluorescent microscopy.

brain tumor = experiment: Alexa Fluor 488 anti-mouse IgG transfection, immunofluorescent staining; format: cell-based; settings: HEPES buffer 20 mM-40 mM
Experimental: (§3) Immunofluorescent staining procedure: After protein transfection is completed, the cells in the culture dish were washed three times with phosphate buffered saline (PBS) and fixed with 4% paraformaldehyde for 20 min. The cells were washed again with PBS, perforated with 0.1% Triton X-100 for 5 min, and blocked with 10% BSA for 30 min. For Alexa Fluor 488 anti-mouse IgGs, cells were stained with DAPI for 10 min. For B23, histone 1 or GAPDH antibody transfection, cells were stained with Alexa Fluor 488 or 546 anti-mouse IgG antibodies for 30 min and then stained with DAPI. For […]1 proteins or Flag-Rev peptides transfection, cells were stained with anti-v5 or anti-flag antibodies, respectively, and then stained with Alexa Fluor 488 anti-mouse IgG and DAPI. All images were detected by confocal microscopes (Leica, Wetzlar, Germany). The fluorescent signals were analyzed and quantified by Q-Win software (Leica, Wetzlar, Germany). FIG. 1 schematically illustrates the protein transfection procedure. Briefly, the protein of interest and a protein transfection composition, such as HEPES buffer, were mixed and incubated for about 15 min to about 30 min to form a mixture (Panel A). Cells to be transfected were replaced in a minimal essential medium (Panel B). The mixture in Panel A was added to the cells in Panel B and incubated at 37° C. for about 4 to about 24 hours (Panel C). The protein transfection efficiency can be analyzed using immunofluorescent staining or flow cytometry (Panel D). Alexa Fluor 488 anti-mouse IgG or […]1 were incubated with Opti-MEM (the control group) or HEPES buffer (20 mM-40 mM) to transfect the following cancer cells according to the steps in Example 1: human cervical cancer cells, human breast cancer cells (MCF7, BRCA009 or BRCA011), human endometrial cancer cells, lung adenocarcinoma cells, human pancreatic cancer cells, hepatocellular carcinoma cells, scarcoma cells, renal cell carcinoma cells, lymphoma cells, nasopharyngeal carcinoma cells, brain tumor cells, colon cancer cells, and leukemic cells. The protein transfection efficiency was assessed by flow cytometry or confocal microscope.

colon cancer = experiment: as above; format: cell-based; settings: HEPES buffer 20 mM-40 mM
Experimental: as §3

leukemia cells = experiment: as above; format: cell-based; settings: HEPES buffer 20 mM-40 mM
Experimental: as §3

nasopharyngeal carcinoma = experiment: as above; format: cell-based; settings: HEPES buffer 20 mM-40 mM
Experimental: as §3

non Hodgkin's lymphoma = experiment: as above; format: cell-based; settings: HEPES buffer 20 mM-40 mM
Experimental: as §3

renal cell carcinoma = experiment: as above; format: cell-based; settings: HEPES buffer 20 mM-40 mM
Experimental: as §3

scarcoma cells = experiment: as above; format: cell-based; settings: HEPES buffer 20 mM-40 mM
Experimental: as §3

[4] = test system: breast cancer cells (BRCA009); experiment: as above; format: cell-based, human; settings: after 6 hours of incubation
Experimental: (§4) Immunofluorescent staining procedure: After protein transfection is completed, the cells in the culture dish were washed three times with phosphate buffered saline (PBS) and fixed with 4% paraformaldehyde for 20 min. The cells were washed again with PBS, perforated with 0.1% Triton X-100 for 5 min, and blocked with 10% BSA for 30 min. For Alexa Fluor 488 anti-mouse IgGs, cells were stained with DAPI for 10 min. For B23, histone 1 or GAPDH antibody transfection, cells were stained with Alexa Fluor 488 or 546 anti-mouse IgG antibodies for 30 min and then stained with DAPI. For […]1 proteins or Flag-Rev peptides transfection, cells were stained with anti-v5 or anti-flag antibodies, respectively, and then stained with Alexa Fluor 488 anti-mouse IgG and DAPI. All images were detected by confocal microscopes (Leica, Wetzlar, Germany). The fluorescent signals were analyzed and quantified by Q-Win software (Leica, Wetzlar, Germany). FIG. 1 schematically illustrates the protein transfection procedure. Briefly, the protein of interest and a protein transfection composition, such as HEPES buffer, were mixed and incubated for about 15 min to about 30 min to form a mixture (Panel A). […] The protein transfection efficiency can be analyzed using immunofluorescent staining or flow cytometry (Panel D). […] The protein transfection efficiency was assessed by flow cytometry or confocal microscope.

[5] = test system: breast cancer cells (BRCA011); experiment: as above; format: cell-based, human; settings: after 24 hours of incubation
Experimental: as §4

Structure (SMILES): OC[C@H]1O[C@@](CO)(O[C@H]2O[C@H](CO)[C@@H](O)[C@H](O)[C@H]2O)[C@@H](O)[C@@H]1O [sucrose]
- effect on HEPES-mediated IgG transfection [1]: reduced

Structure (SMILES): N=C(N)NC(=O)c1nc(Cl)c(N)nc1N [amiloride]
- effect on HEPES-mediated IgG transfection [1]: reduced

Structure (SMILES): CCCCC[C@@H](O)[C@H]1C(=O)O[C@H](C)[C@@H](O)/C=C/C=C/C=C/C=C/C=C(\C)[C@@H](O)C[C@H](O)C[C@H](O)C[C@H](O)C[C@H](O)C[C@H](O)C[C@@H]1O [filipin]
- effect on HEPES-mediated IgG transfection [1]: reduced

Structure (SMILES): O=S(=O)(O)CCN1CCN(CCO)CC1 [HEPES buffer, 4-(2-hydroxyethyl)-1-piperazineethanesulfonic acid]
- HEPES buffer concentration at which cell growth was inhibited [2]: 50 mM
- HEPES buffer concentration at which cell growth was inhibited (endometrial cancer cells): 50 mM
- transfection of Alexa Fluor 488 anti-mouse IgG antibody in the cytoplasm compared to control group (Opti-MEM) ([3]; 20-30 mM HEPES buffer, confocal microscopy): increased
- IgG transfection efficiency compared to commercial protein transfection reagents ([3]; anti-GAPDH antibody, HEPES buffer 20 mM vs PULSin, ProteoJuice, Pro-Ject, Xfect, BioPorter): comparable
- protein transfection efficiency, second incubation time 24 hours compared to 4 hours ([3]; rhSTIP1, 5 mM HEPES buffer): improved
- protein transfection efficiency as a function of HEPES concentration ([3]; rhSTIP1 incubated with HEPES about 15 min, cells in Opti-MEM 4 to 24 hours): increases with a higher HEPES concentration; also recorded: does not increase further with HEPES concentration higher than 30 to 50 mM
- Alexa Fluor 488 anti-mouse IgG signal using HEPES buffer compared to Opti-MEM (brain tumor): increased
- Alexa Fluor 488 anti-mouse IgG signal using HEPES buffer compared to Opti-MEM (colon cancer): increased
- Alexa Fluor 488 anti-mouse IgG signal using HEPES buffer compared to Opti-MEM (leukemia cells): increased
- Alexa Fluor 488 anti-mouse IgG signal using HEPES buffer compared to Opti-MEM (nasopharyngeal carcinoma): increased
- Alexa Fluor 488 anti-mouse IgG signal using HEPES buffer compared to Opti-MEM (non Hodgkin's lymphoma): increased
- Alexa Fluor 488 anti-mouse IgG signal using HEPES buffer compared to Opti-MEM (renal cell carcinoma): increased
- Alexa Fluor 488 anti-mouse IgG signal using HEPES buffer compared to Opti-MEM (scarcoma cells): increased
- Alexa Fluor 488 anti-mouse IgG signal using HEPES buffer compared to Opti-MEM [4]: increased
- Alexa Fluor 488 anti-mouse IgG signal using HEPES buffer compared to Opti-MEM [5]: increased
